Experimental data reported in patent publication US20200385398A1, “NEW BICYCLIC DERIVATIVES” (Elanco Tiergesundheit AG, priority 2019, published 2020).

System: D. immitis microfilariae
Assay: Dog heart worm microfilariae motility assay
Format: cell-based
Conditions: Dirofilaria immitis, read-out: EC50 (motility inhibition)

`O=C(NN1CCOc2ccccc21)c1cnc2c(-c3cc(F)cc(F)c3F)cccc2c1N1CCSCC1` [Example 5.10, N-(2,3-dihydro-1,4-benzoxazin-4-yl)-4-thiomorpholino-8-(2,3,5-trifluorophenyl)quinoline-3-carboxamide] was tested. Which EC50 did it give?
Its EC50 is under 0.1 µg/mL.
